Laboratory results published in patent US11161850B2, “Fused pyrazine derivatives as A2A / A2B inhibitors” (Incyte Corporation, priority 2018, dated 2021).
Where two headings read alike, the source gives them in different places.

Assays:
Adenosine A2A = Adenosine A2A (Homo sapiens (Human), UniProt P29274); assay: A2A Tag-Lite HTRF assay; format: binding
Text: Example C. A2A Tag-Lite® HTRF Assay

[1] = biological target: human adenosine A2B receptor (Homo sapiens (Human), UniProt P29275); assay: Adenosine A2B Receptor Cyclic AMP GS Assay; format: cell-based; conditions: HEK-293 cells expressing human A2B, agonist NECA 12 nM
Sequence of human adenosine A2B receptor (P29275 whole entry): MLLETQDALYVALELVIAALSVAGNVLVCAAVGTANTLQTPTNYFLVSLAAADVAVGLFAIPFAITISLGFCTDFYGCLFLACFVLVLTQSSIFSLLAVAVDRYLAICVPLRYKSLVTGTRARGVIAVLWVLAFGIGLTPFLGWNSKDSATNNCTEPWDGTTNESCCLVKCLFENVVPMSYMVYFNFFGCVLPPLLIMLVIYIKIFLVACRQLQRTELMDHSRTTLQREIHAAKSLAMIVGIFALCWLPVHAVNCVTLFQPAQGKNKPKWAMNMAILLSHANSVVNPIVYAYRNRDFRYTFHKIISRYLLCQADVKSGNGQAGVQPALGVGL
Experimental: Example B. Adenosine A2B Receptor Cyclic AMP GS Assay
Stably transfected HEK-293 cells expressing the human adenosine A2B receptor (Perkin Elmer) were maintained in MEM culture medium with 10% FBS and 100 μg/mL Geneticin (Life Technologies). 18 to 24 hours prior to assay, geneticin was removed from culture. The cisbio cAMP-GS Dynamic kit utilizing the FRET (Fluorescence Resonance Energy Transfer) technology was used to measure cAMP accumulation in the cells. Compounds of the present disclosure at an appropriate concentration were mixed with 10000 cells/well in white 96 well half area plates (Perkin Elmer) for 30 min at room temperature gently shaking. Agonist, NECA (R&D Technologies) at 12 nM was added to each well for 60 min at room temperature gently shaking. Detection reagents, d2-labeled cAMP (acceptor) and anti-cAMP cryptate (donor) were added to each well for 60 min at rt gently shaking. Plates were read on Pherastar (BMG Labtech), fluorescence ratio 665/620 was calculated and EC50 determination was performed by fitting the curve of percent of control versus the log of the compound concentration using GraphPad Prism.

[2] = read-out: A2A_Ki, Tag-Lite Adenosine A2A labeled cells, fluorescent ligand 12.5 nM
[3] = Tag-Lite Adenosine A2A labeled cells, fluorescent ligand 12.5 nM, read-out: A2A_Ki

Sequence of Adenosine A2A (P29274 whole entry): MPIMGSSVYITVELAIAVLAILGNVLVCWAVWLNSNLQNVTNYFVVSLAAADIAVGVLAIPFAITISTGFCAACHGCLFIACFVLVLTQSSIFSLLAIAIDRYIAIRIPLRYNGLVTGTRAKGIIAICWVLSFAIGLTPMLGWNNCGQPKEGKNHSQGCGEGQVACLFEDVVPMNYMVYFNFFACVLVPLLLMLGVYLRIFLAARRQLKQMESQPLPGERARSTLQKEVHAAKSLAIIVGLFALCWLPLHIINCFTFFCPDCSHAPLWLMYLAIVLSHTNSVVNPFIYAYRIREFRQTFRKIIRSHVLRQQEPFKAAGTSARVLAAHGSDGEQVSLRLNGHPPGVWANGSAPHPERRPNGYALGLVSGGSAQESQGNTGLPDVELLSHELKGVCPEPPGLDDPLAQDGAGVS

Structure (SMILES)	Ki (Adenosine A2A; [2]) [nM]	EC50 ([1]; read-out: A2B_cAMP_EC50) [nM]	Ki (Adenosine A2A; [3]) [nM]	EC50 ([1]; A2B_cAMP_EC50 (nM)) [nM]	Ki (Adenosine A2A) [nM]
N#Cc1cccc(-c2nc(N)c3nc(C(O)c4cc(F)ccc4F)nn3c2-c2ccncn2)c1 (single isomer, unassigned) [Example 52, 3-(8-Amino-2-((2,5-difluorophenyl)(hydroxy)methyl)-5-(pyrimidin-4-yl)-[1,2,4]triazolo[1,5-a]pyrazin-6-yl)benzonitrile]	< 10	< 10			
N#Cc1cccc(-c2nc(N)c3cc(C4=CCOCC4)nn3c2-c2ccncn2)c1 [Example 24, 3-(4-Amino-2-(3,6-dihydro-2H-pyran-4-yl)-7-(pyrimidin-4-yl)pyrazolo[1,5-a]pyrazin-6-yl)benzonitrile]			< 10	10 to 100	
CC(=O)N1CCC(Cc2cccc(F)c2Cc2nc3c(N)nc(-c4cccc(C#N)c4F)cn3n2)CC1 [Example 91, 3-(2-(2-((1-acetylpiperidin-4-yl)methyl)-6-fluorobenzyl)-8-amino-[1,2,4]triazolo[1,5-a]pyrazin-6-yl)-2-fluorobenzonitrile]			< 10	10 to 100	
CCNC(=O)c1cc2c(N)nc(-c3cccc(C#N)c3)c(C3(C(F)(F)F)CC3)n2n1 [Example 6, 4-Amino-6-(3-cyanophenyl)-N-ethyl-7-(1-(trifluoromethyl)cyclopropyl)pyrazolo[1,5-a]pyrazine-2-carboxamide]				> 1000	10 to 100
N#Cc1cccc(-c2nc(N)c3nc(Cn4cccc5ccnc4-5)nn3c2-c2ccncn2)c1 [Example 33, 3-(2-((7H-pyrrolo[2,3-b]pyridin-7-yl)methyl)-8-amino-5-(pyrimidin-4-yl)-[1,2,4]triazolo[1,5-a]pyrazin-6-yl)benzonitrile]			< 10	< 10	
N#Cc1cccc(-c2nc(N)c3nc(Cc4c(F)cccc4CN4CC(C#N)C4)nn3c2-c2ccncn2)c1 [Example 73, 1-(2-((8-amino-6-(3-cyanophenyl)-5-(pyrimidin-4-yl)-[1,2,4]triazolo[1,5-a]pyrazin-2-yl)methyl)-3-fluorobenzyl)azetidine-3-carbonitrile]			< 10	< 10	
N#Cc1cccc(-c2cn3nc(Cc4ncccc4Nc4cnn(C5CCOCC5)c4)nc3c(N)n2)c1F [Example 121, 3-(8-amino-2-((3-((1-(tetrahydro-2H-pyran-4-yl)-1H-pyrazol-4-yl)amino)pyridin-2-yl)methyl)-[1,2,4]triazolo[1,5-a]pyrazin-6-yl)-2-fluorobenzonitrile]			< 10	10 to 100	
Cc1ncoc1-c1c(-c2cccc(C#N)c2)nc(N)c2nc(C(O)c3ccccn3)nn12 (racemic) [Example 40, 3-(8-Amino-2-(hydroxy(pyridin-2-yl)methyl)-5-(4-methyloxazol-5-yl)-[1,2,4]triazolo[1,5-a]pyrazin-6-yl)benzonitrile]			< 10	< 10	
CCCn1nccc1-c1c(-c2cccc(C#N)c2)nc(N)c2cc(C(=O)NCC)nn12 [Example 2, 4-Amino-6-(3-cyanophenyl)-N-ethyl-7-(1-propyl-1H-pyrazol-5-yl)pyrazolo[1,5-a]pyrazine-2-carboxamide]			< 10	10 to 100	
Cc1cc(-c2c(-c3cccc(C#N)c3)nc(N)c3nc(C(O)c4c(F)cccc4F)nn23)cc(C)n1 (single isomer, unassigned) [Example 95, 3-(8-amino-2-((2,6-difluorophenyl)(hydroxy)methyl)-5-(2,6-dimethylpyridin-4-yl)-[1,2,4]triazolo[1,5-a]pyrazin-6-yl)benzonitrile]	< 10	10 to 100			
Cn1cc(Cn2cc(-c3cccc(F)c3Cc3nc4c(N)nc(-c5cccc(C#N)c5F)cn4n3)cn2)cn1 [Example 99, 3-(8-amino-2-(2-fluoro-6-(1-((1-methyl-1H-pyrazol-4-yl)methyl)-1H-pyrazol-4-yl)benzyl)-[1,2,4]triazolo[1,5-a]pyrazin-6-yl)-2-fluorobenzonitrile]			< 10	10 to 100	
N#Cc1cccc(-c2nc(N)c3nc(C(O)c4c(F)cccc4F)nn3c2-c2cnco2)c1 (single isomer, unassigned) [Example 106, 3-(8-amino-2-((2,6-difluorophenyl)(hydroxy)methyl)-5-(oxazol-5-yl)-[1,2,4]triazolo[1,5-a]pyrazin-6-yl)benzonitrile]	< 10	< 10			
CN1CCC2(CN(Cc3cccc(F)c3Cc3nc4c(N)nc(-c5cccc(C#N)c5)c(-c5ccncn5)n4n3)C2)C1=O [Example 66, 3-(8-amino-2-(2-fluoro-6-((6-methyl-5-oxo-2,6-diazaspiro[3.4]octan-2-yl)methyl)benzyl)-5-(pyrimidin-4-yl)-[1,2,4]triazolo[1,5-a]pyrazin-6-yl)benzonitrile]			< 10	< 10	
N#Cc1cccc(-c2nc(N)c3nc(Cc4c(F)cccc4CN[C@H]4C[C@@H](C(=O)O)C4)nn3c2-c2ccncn2)c1 [Example 71, (1S,3S)-3-((2-((8-amino-6-(3-cyanophenyl)-5-(pyrimidin-4-yl)-[1,2,4]triazolo[1,5-a]pyrazin-2-yl)methyl)-3-fluorobenzyl)amino)cyclobutane-1-carboxylic Acid]			< 10	< 10	
N#Cc1cccc(-c2nc(N)c3nc(C(=O)N4CCC4)nn3c2-c2ccncc2F)c1 [Example 125, 3-(8-amino-2-(azetidine-1-carbonyl)-5-(3-fluoropyridin-4-yl)-[1,2,4]triazolo[1,5-a]pyrazin-6-yl)benzonitrile]			< 10	10 to 100	
N#Cc1cccc(-c2nc(N)c3cc(Cc4ccccc4F)nn3c2C#N)c1 [Example 20, 4-Amino-6-(3-cyanophenyl)-2-(2-fluorobenzyl)pyrazolo[1,5-a]pyrazine-7-carbonitrile]			< 10	< 10	
N#Cc1cccc(-c2nc(N)c3cc(CN4CCC4)nn3c2-c2ccncn2)c1 [Example 13, 3-(4-Amino-2-(azetidin-1-ylmethyl)-7-(pyrimidin-4-yl)pyrazolo[1,5-a]pyrazin-6-yl)benzonitrile]				100 to 1000	10 to 100
N#Cc1cccc(-c2nc(N)c3nc(Cn4cc5ccccc5n4)nn3c2-c2ccncn2)c1 [Example 47, 3-(2-((2H-Indazol-2-yl)methyl)-8-amino-5-(pyrimidin-4-yl)-[1,2,4]triazolo[1,5-a]pyrazin-6-yl)benzonitrile]			< 10	10 to 100	
Cc1ncoc1-c1c(-c2cccc(C#N)c2)nc(N)c2nc(Cc3ccccn3)nn12 [Example 42, 3-(8-Amino-5-(4-methyloxazol-5-yl)-2-(pyridin-2-ylmethyl)-[1,2,4]triazolo[1,5-a]pyrazin-6-yl)benzonitrile]			< 10	< 10	
N#Cc1cccc(-c2nc(N)c3ncnn3c2-c2ccc(=O)[nH]c2)c1 [Example 15, 3-(8-Amino-5-(6-oxo-1,6-dihydropyridin-3-yl)-[1,2,4]triazolo[1,5-a]pyrazin-6-yl)benzonitrile]			< 10	< 10	
CN[C@H]1C[C@H](n2cc(-c3cccc(F)c3Cc3nc4c(N)nc(-c5cccc(C#N)c5F)cn4n3)cn2)C1 [Example 116, 3-(8-amino-2-(2-fluoro-6-(1-((trans)-3-(methylamino)cyclobutyl)-1H-pyrazol-4-yl)benzyl)-[1,2,4]triazolo[1,5-a]pyrazin-6-yl)-2-fluorobenzonitrile]			< 10	10 to 100	
N#Cc1cccc(-c2nc(N)c3nc(C(O)c4ccccc4)nn3c2-c2ccncn2)c1 (stereo not drawn) [Example 59, 3-(8-Amino-2-(hydroxy(phenyl)methyl)-5-(pyrimidin-4-yl)-[1,2,4]triazolo[1,5-a]pyrazin-6-yl)benzonitrile]			< 10	10 to 100	
Cn1nncc1-c1c(-c2cccc(C#N)c2)nc(N)c2cc(Cc3ccccn3)nn12 [Example 37, 3-(4-Amino-7-(1-methyl-1H-1,2,3-triazol-5-yl)-2-(pyridin-2-ylmethyl)pyrazolo[1,5-a]pyrazin-6-yl)benzonitrile]			< 10	< 10	
N#Cc1cccc(-c2nc(N)c3nc(Cc4c(F)cccc4CN4CCNC(=O)C4)nn3c2-c2ccncn2)c1 [Example 70, 3-(8-amino-2-(2-fluoro-6-((3-oxopiperazin-1-yl)methyl)benzyl)-5-(pyrimidin-4-yl)-[1,2,4]triazolo[1,5-a]pyrazin-6-yl)benzonitrile]			< 10	10 to 100	
N#Cc1cccc(-c2nc(N)c3nc(C(O)c4ccccc4F)nn3c2-c2ccncn2)c1 (single isomer, unassigned) [Example 55, 3-(8-Amino-2-((2-fluorophenyl)(hydroxy)methyl)-5-(pyrimidin-4-yl)-[1,2,4]triazolo[1,5-a]pyrazin-6-yl)benzonitrile]				< 10	< 10
N#Cc1cccc(-c2nc(N)c3cc(C(=O)N4CCCC4)nn3c2-c2ccncn2)c1 [Example 8, 3-(4-Amino-7-(pyrimidin-4-yl)-2-(pyrrolidine-1-carbonyl)pyrazolo[1,5-a]pyrazin-6-yl)benzonitrile]			< 10	10 to 100	
Cn1cc(-c2cccc(F)c2Cc2nc3c(N)nc(-c4cccc(C#N)c4F)cn3n2)cn1 [Example 83, 3-(8-amino-2-(2-fluoro-6-(1-methyl-1H-pyrazol-4-yl)benzyl)-[1,2,4]triazolo[1,5-a]pyrazin-6-yl)-2-fluorobenzonitrile]			< 10	< 10	
